Measured values taken from patent publication US8916555B2, “3,5-diaminopyrazole kinase inhibitors” (Axikin Pharmaceuticals, Inc., priority 2012, dated 2014).

Assays:
[1] = molecular target: T1, kinase domain protein of RC kinase (Homo sapiens, UniProt Q56UN5); assay: Enzymatic assay for kinase inhibitory activity (Crebtide substrate, LANCE readout), kinase domain protein; type: biochemical; conditions: test compound 1 μM, ATP 1 μM, Crebtide 50 nM
T1 sequence (Q56UN5 1061-1324 limits assumed): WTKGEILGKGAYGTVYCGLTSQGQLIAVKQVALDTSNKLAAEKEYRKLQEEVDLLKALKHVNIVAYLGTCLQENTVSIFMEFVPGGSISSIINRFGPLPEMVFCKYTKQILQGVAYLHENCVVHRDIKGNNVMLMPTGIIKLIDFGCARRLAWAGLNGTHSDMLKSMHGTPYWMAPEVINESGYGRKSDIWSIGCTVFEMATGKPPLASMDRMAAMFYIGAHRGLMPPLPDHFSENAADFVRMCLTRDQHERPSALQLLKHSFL
Method in brief: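 Kinase domain (1 mg/mL final) with 50 nM Crebtide and 1 μM ATP in MAPK buffer (50 mM HEPES, 10 mM MgCl2, 2 mM DTT, 0.01% Tween 20), 45 min RT. Compound at 1 μM or 1×IC50, duplicate. EDTA/anti-Crebtide stop, 45 min development, LANCE 665/615 nm; % inhibition at 1 μM binned A–D.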

| SMILES | melting point [°C] | inhibition at 1 µM [1] [%] |
| --- | --- | --- |
| NC(=O)c1c(Nc2cccnc2)n[nH]c1NCc1ccc(Cl)cc1 [Compound D154, 5-((4-chlorobenzyl)amino)-3-(pyridin-3-ylamino)-1H-pyrazole-4-carboxamide] | 228 to 231 | 5 to 20 |
| NC(=O)c1c(Nc2cccnc2)n[nH]c1NCc1ccccc1 [Compound D155, 5-(benzylamino)-3-(pyridin-3-ylamino)-1H-pyrazole-4-carboxamide] | 228 to 231 | 5 to 20 |
| COc1ccccc1CNc1[nH]nc(Nc2cccc(Cl)c2)c1C(N)=O [Compound D157, 3-((3-chlorophenyl)amino)-5-((2-methoxybenzyl)amino)-1H-pyrazole-4-carboxamide] | 225 to 227 | 5 to 20 |
| NC(=O)c1c(Nc2ccc(Cl)c(Cl)c2)n[nH]c1NCc1ccc(O)cc1 [Compound D158, 3-((3,4-dichlorophenyl)amino)-5-((4-hydroxybenzyl)amino)-1H-pyrazole-4-carboxamide] | 203 to 209 | ≥ 50 |
| NC(=O)c1c(Nc2ccc(F)c(Cl)c2)n[nH]c1NCc1ccc(O)cc1 [Compound D159, 3-((3-chloro-4-fluorophenyl)amino)-5-((4-hydroxybenzyl)amino)-1H-pyrazole-4-carboxamide] | 178 to 183 | ≥ 50 |
| NC(=O)c1c(Nc2ccc(Br)c(Cl)c2)n[nH]c1NCc1ccc(O)cc1 [Compound D160, 3-((4-bromo-3-chlorophenyl)amino)-5-((4-hydroxybenzyl)amino)-1H-pyrazole-4-carboxamide] | 199 to 204 | 20 to 50 |

Further lines, results first:

| melting point [°C] | inhibition at 1 µM [1] [%] | SMILES |
| --- | --- | --- |
| 206 to 210 | ≥ 50 | NC(=O)c1c(Nc2ccc(-c3ccccc3)cc2)n[nH]c1NCc1ccc(O)cc1 [Compound D161, 3-([1,1′-biphenyl]-4-ylamino)-5-((4-hydroxybenzyl)amino)-1H-pyrazole-4-carboxamide] |
| 176 to 180 | ≥ 50 | COc1ccc(Nc2n[nH]c(NCc3ccc(O)cc3)c2C(N)=O)cc1 [Compound D162, 5-((4-hydroxybenzyl)amino)-3-((4-methoxyphenyl)amino)-1H-pyrazole-4-carboxamide] |
| 204 to 207 | ≥ 50 | NC(=O)c1c(Nc2ccc(F)cc2)n[nH]c1NCc1ccc(O)cc1 [Compound D163] |
| 218 to 222 | ≥ 50 | CC(C)(C)c1ccc(Nc2n[nH]c(NCc3ccc(O)cc3)c2C(N)=O)cc1 [Compound D164, 3-((4-(tert-butyl)phenyl)amino)-5-((4-hydroxybenzyl)amino)-1H-pyrazole-4-carboxamide] |
| 285 to 290 | ≥ 50 | NC(=O)c1c(Nc2ccc(C(=O)O)cc2)n[nH]c1NCc1ccc(O)cc1 [Compound D165, 4-((4-carbamoyl-5-((4-hydroxybenzyl)amino)-1H-pyrazol-3-yl)amino)benzoic acid] |
